Values quoted from earlier work, collected in patent publication US9173845B2, “Controlled release pharmaceutical compositions of milnacipran” (priority 2009, dated 2015).

Details: immediate release Milnacipran, background

In the case of CCN(CC)C(=O)C1(c2ccccc2)CC1CN (stereo not drawn) [Milnacipran, cis-2-amino methyl-N,N-diethyl-1-phenyl cyclopropane carboxamide], the half-life is listed as ~8 h.
